Experimental data: patent US20230265151A1, “GIP/GLP1 CO-AGONIST COMPOUNDS” (priority 2020, published 2023)
pKi: −log10 of the molar value. Like-named read-outs stand apart in the source and are kept apart here. *1 amine or outer side, *2 acyl side, *3 side chain or, on linkers, in order; H or OH if unused. Where a SMILES comes first, the peptide text is derived from it. Side-chain parts run from the residue outwards. [ ]: non-standard residue; d: D form. The star is where a group is joined. Decanoyl(10-(4-HOOC-PhO)) = O=C(O)c1ccc(OCCCCCCCCCC(=O)*)cc1; αMePhe(2-F) = C[C@](N)(Cc1ccccc1F)C(=O)O; γGlu = O=C(O)[C@H](CCC(=O)[*:2])N[*:1]; αMeY = C[C@](N)(Cc1ccc(O)cc1)C(=O)O; αMeL = CC(C)C[C@](C)(N)C(=O)O; Orn = NCCC[C@H](N)C(=O)O; AEEA = NCCOCCOCC(=O)O; Aib = CC(C)(N)C(=O)O

Key:
hGLP-1R = hGLP-1R (Homo sapiens, UniProt P43220); assay: Functional cAMP formation (HTRF) in HEK-293 clonal cells expressing hGLP-1R, 0.1% bovine casein, without or with 1.0% human serum albumin; type: cell-based; set-up: expressed in transfected cells; conditions: for EC50: cAMP
Sequence of hGLP-1R (P43220 24-463): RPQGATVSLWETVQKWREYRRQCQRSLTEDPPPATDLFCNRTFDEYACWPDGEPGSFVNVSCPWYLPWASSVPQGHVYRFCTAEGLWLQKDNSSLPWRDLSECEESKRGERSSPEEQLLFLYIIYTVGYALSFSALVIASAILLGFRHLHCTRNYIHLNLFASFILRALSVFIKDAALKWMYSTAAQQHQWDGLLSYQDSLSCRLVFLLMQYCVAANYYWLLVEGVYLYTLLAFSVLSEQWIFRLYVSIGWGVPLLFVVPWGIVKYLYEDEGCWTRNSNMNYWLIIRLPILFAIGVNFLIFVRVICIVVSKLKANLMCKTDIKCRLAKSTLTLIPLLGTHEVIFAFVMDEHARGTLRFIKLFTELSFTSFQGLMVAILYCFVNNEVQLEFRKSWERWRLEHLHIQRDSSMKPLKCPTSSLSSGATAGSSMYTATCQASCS
Outline: (§1)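 Cells were stimulated with peptide for 30 min at 37° C, then intracellular cAMP was measured by competitive HTRF (665/620 nm ratio) and converted to nM using a cAMP standard curve. Relative EC50 and Emax came from four-parameter logistic fits of percent maximal response against peptide concentration.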

hGIPR = molecular target: T1, hGIPR (Homo sapiens, UniProt P48546); assay: Functional cAMP formation (HTRF) in HEK-293 clonal cells expressing hGIPR, 0.1% bovine casein, without or with 1.0% human serum albumin; type: cell-based; conditions: for EC50: cAMP, 0.1% bovine casein (no human serum albumin), geometric mean; for Emax: percent of maximal response to GIP(1-42)NH2
T1 construct: expressed in transfected cells
T1 sequence (P48546 22-466): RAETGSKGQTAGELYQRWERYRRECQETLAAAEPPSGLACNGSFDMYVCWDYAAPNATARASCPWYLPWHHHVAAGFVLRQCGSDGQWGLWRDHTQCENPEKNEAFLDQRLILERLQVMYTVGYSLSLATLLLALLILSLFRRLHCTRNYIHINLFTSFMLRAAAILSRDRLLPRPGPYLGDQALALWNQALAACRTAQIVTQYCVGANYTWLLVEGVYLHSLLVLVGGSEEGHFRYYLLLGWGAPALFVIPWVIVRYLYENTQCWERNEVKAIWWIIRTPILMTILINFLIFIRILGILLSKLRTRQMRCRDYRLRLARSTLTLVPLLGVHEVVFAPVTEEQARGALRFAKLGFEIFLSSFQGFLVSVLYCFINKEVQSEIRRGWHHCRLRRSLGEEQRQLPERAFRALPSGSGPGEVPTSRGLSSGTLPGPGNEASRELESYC
Outline: as §1

[1] = molecular target: T2, human GLP-1 receptor (hGLP-1R) (Homo sapiens, UniProt P43220); assay: [125I]-GLP-1 binding, SPA with membranes of HEK293 cells expressing hGLP-1R
T2 construct: expressed in transfected cells; crude membranes
T2 sequence (P43220 24-463): as the sequence (P43220 24-463) above

hGCGR = molecular target: T3, hGCGR (Homo sapiens, UniProt P47871); assay: Functional cAMP formation (HTRF) in HEK-293 clonal cells expressing hGCGR, 0.1% bovine casein, without or with 1.0% human serum albumin; type: cell-based; conditions: cAMP
T3 construct: expressed in transfected cells
T3 sequence (P47871 26-477): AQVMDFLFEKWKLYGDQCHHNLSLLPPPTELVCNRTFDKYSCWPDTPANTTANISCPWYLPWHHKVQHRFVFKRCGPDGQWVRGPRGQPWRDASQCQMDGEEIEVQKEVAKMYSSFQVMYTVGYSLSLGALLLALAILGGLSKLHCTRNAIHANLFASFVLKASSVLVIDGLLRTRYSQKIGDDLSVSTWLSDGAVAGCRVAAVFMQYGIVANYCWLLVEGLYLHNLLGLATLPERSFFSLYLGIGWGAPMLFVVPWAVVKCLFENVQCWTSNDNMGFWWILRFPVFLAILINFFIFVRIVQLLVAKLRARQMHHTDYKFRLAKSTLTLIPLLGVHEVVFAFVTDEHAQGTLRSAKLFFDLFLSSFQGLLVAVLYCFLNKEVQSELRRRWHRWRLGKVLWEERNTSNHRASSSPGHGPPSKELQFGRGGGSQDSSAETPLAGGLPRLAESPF
Outline: as §1

[2] = molecular target: T4, human Gcg receptor (hGcgR) (Homo sapiens, UniProt P47871); assay: [125I]-Glucagon binding, SPA with membranes of HEK293 cells expressing hGcgR
T4 construct: expressed in transfected cells; crude membranes
T4 sequence (P47871 26-477): as above

Row | Compound | Emax (hGLP-1R; HEK293, percent of maximal response to GLP-1(7-36)NH2, 37° C., 0.1% bovine casein, arithmetic mean, read-out: hGLP-1R Emax, % ± SEM) | EC50 (hGLP-1R; incubated at 37° C., 0.1% bovine casein (no human serum albumin), geometric mean, read-out: hGLP-1R EC50, nM (SEM, n)) | EC50 (hGIPR; incubated at 37° C., read-out: hGIPR EC50, nM (SEM, n)) | Ki ([1]; human GLP-1R, geometric mean (SEM, n), read-out: Binding Affinity Ki, nM (SEM, n) hGLP-1R) | EC50 (hGCGR; incubated at 37° C., 0.1% bovine casein (no human serum albumin), geometric mean, read-out: hGCGR EC50, nM (SEM, n)) | Ki ([2]; human GcgR, geometric mean (SEM, n), read-out: Binding Affinity Ki, nM (SEM, n) hGCGR) | Emax (hGLP-1R; HEK293, read-out: hGLP-1R Emax, % ± SEM, cAMP, 37° C., 0.1% bovine casein and 1.0% human serum albumin, percent of maximal response to GLP-1(7-36)NH2) | EC50 (hGLP-1R; hGLP-1R EC50, nM (SEM, n), 37° C., 0.1% bovine casein (no human serum albumin), geometric mean) | EC50 (hGLP-1R; hGLP-1R EC50, nM (SEM, n), 37° C., 0.1% bovine casein and 1.0% human serum albumin, geometric mean (SEM, n)) | Emax (hGIPR; HEK293, read-out: hGIPR Emax, % ± SEM, cAMP, 37° C., 0.1% bovine casein and 1.0% human serum albumin) | Emax (hGIPR; HEK293, read-out: hGIPR Emax, % ± SEM, cAMP, 37° C., 0.1% bovine casein, arithmetic mean) | EC50 (hGIPR; hGIPR EC50, nM (SEM, n), 37° C.) | pKi [1] | EC50 (hGCGR; hGCGR EC50, nM (SEM, n), 37° C., 0.1% bovine casein (no human serum albumin), geometric mean) | EC50 (hGCGR; hGCGR EC50, nM (SEM, n), 37° C., 0.1% bovine casein and 1.0% human serum albumin, geometric mean (SEM, n)) | pKi [2]
1 | CCCCCCCCCCCC(=O)N[C@@H](CCC(=O)NCCOCCOCC(=O)NCCOCCOCC(=O)NCCCC[C@H](NC(=O)[C@H](CCCN)NC(=O)[C@H](CC(=O)O)NC(=O)[C@H](CC(C)C)NC(=O)[C@](C)(CC(C)C)NC(=O)[C@@H](NC(=O)[C@H](CO)NC(=O)[C@H](Cc1ccncc1)NC(=O)[C@H](CC(=O)O)NC(=O)[C@H](CO)NC(=O)[C@@H](NC(=O)[C@](C)(Cc1ccccc1F)NC(=O)[C@@H](NC(=O)CNC(=O)[C@H](CCC(=O)O)NC(=O)C(C)(C)NC(=O)[C@@H](N)Cc1ccc(O)cc1)[C@@H](C)O)[C@@H](C)O)[C@@H](C)CC)C(=O)N[C@@H](C)C(=O)N[C@@H](CCC(N)=O)C(=O)NC(C)(C)C(=O)N[C@@H](CCC(=O)O)C(=O)N[C@@H](Cc1ccccc1)C(=O)N[C@H](C(=O)N[C@H](CCC(=O)O)C(=O)N[C@@](C)(Cc1ccc(O)cc1)C(=O)N[C@@H](CC(C)C)C(=O)N[C@H](C(=O)N[C@@H](CCCCNC(=O)COCCOCCNC(=O)COCCOCCNC(=O)CC[C@H](NC(=O)CCCCCCCCCCC)C(=O)O)C(=O)NCC(=O)NCC(=O)N1CCC[C@H]1C(=O)N[C@@H](CO)C(=O)N[C@@H](CO)C(=O)NCC(=O)N[C@@H](C)C(=O)N1CCC[C@H]1C(=O)N1CCC[C@H]1C(=O)N1CCC[C@H]1C(=O)N[C@@H](CO)C(N)=O)[C@@H](C)CC)[C@@H](C)CC)C(=O)O [Example 139] | 111% | 0.141 nM | 0.0108 nM | 0.268 nM | > 9950 nM | 109 nM |  |  |  |  |  |  |  |  |  | 
2 | CC[C@H](C)[C@H](NC(=O)[C@H](CC(C)C)NC(=O)[C@](C)(Cc1ccc(O)cc1)NC(=O)[C@H](CCCCNC(=O)COCCOCCNC(=O)COCCOCCNC(=O)CC[C@H](NC(=O)CCCCCCCCCOc1ccc(C(=O)O)cc1)C(=O)O)NC(=O)[C@@H](NC(=O)[C@H](Cc1ccccc1)NC(=O)[C@H](CCC(=O)O)NC(=O)C(C)(C)NC(=O)[C@H](CCC(N)=O)NC(=O)[C@H](C)NC(=O)[C@H](CCC(N)=O)NC(=O)[C@H](CCCN)NC(=O)[C@H](CC(=O)O)NC(=O)[C@H](CC(C)C)NC(=O)[C@](C)(CC(C)C)NC(=O)[C@@H](NC(=O)C(C)(C)NC(=O)[C@@H](NC(=O)[C@H](CC(=O)O)NC(=O)[C@H](CO)NC(=O)[C@@H](NC(=O)[C@](C)(Cc1ccccc1F)NC(=O)[C@@H](NC(=O)CNC(=O)[C@H](CCC(=O)O)NC(=O)C(C)(C)NC(=O)[C@@H](N)Cc1ccc(O)cc1)[C@@H](C)O)[C@@H](C)O)C(C)C)[C@@H](C)CC)[C@@H](C)CC)C(=O)N[C@@H](CCCCNC(=O)COCCOCCNC(=O)COCCOCCNC(=O)CC[C@H](NC(=O)CCCCCCCCCOc1ccc(C(=O)O)cc1)C(=O)O)C(=O)NCC(=O)NCC(=O)N1CCC[C@H]1C(=O)N[C@@H](CO)C(=O)N[C@@H](CO)C(=O)NCC(=O)N[C@@H](C)C(=O)N1CCC[C@H]1C(=O)N1CCC[C@H]1C(=O)N1CCC[C@H]1C(=O)N[C@@H](CO)C(N)=O [Example 446] (H-Y[Aib]EGT[αMePhe(2-F)]TSDV[Aib]I[αMeL]LD[Orn]QAQ[Aib]EFIK([AEEA-AEEA-γGlu-Decanoyl(10-(4-HOOC-PhO))])[αMeY]LIK([AEEA-AEEA-γGlu-Decanoyl(10-(4-HOOC-PhO))])GGPSSGAPPPS-NH2) |  |  |  |  |  |  | 105% | 0.162 nM | 33.5 nM | 97% | 105% | 0.0164 nM | 9.42 | > 9950 nM | > 9950 nM | 6.96
